# Data from US11071730B2, “Substituted 6-azabenzimidazole compounds” (Gilead Sciences, Inc., priority 2018, dated 2021).
# Target: human HPK1 (MAP4K1) (Homo sapiens (Human), UniProt Q92918)
# Assay: HPK1 IC50 Assay (TR-FRET biochemical kinase assay, STK S1 peptide substrate)
# Conditions: recombinant human HPK1 kinase domain 0.15 nM, 10 μM ATP, 1 μM STK S1 peptide; geometric mean
# Description: The enzymatic activity of human HPK1 (MAP4K1) was monitored in a biochemical assay in the presence or absence of compounds and using a synthetic peptide substrate. An increase in phosphorylation of the peptide by HPK1 was indicative of its kinase activity.
# Recombinant HPK1 kinase domain produced via baculovirus infection of insect cells was obtained from Proteros (Proteros Biostructures #PR-0322) and was pre-activated in the presence of 2 mM ATP (Sigma-Aldrich, cat #GE27-2056-01) and 2 mM magnesium chloride for 16 hours at 4° C. The protein reaction mixture was then loaded to a desalting column (Thermo Fisher Scientific, Cat #89889) to remove excess ATP. HPK1 was eluted with buffer containing 20 mM Tris (2-Amino-2-(hydroxymethyl)propane-1,3-diol) pH 8.0, 150 mM NaCl, 2 mM dithiothreitol and 5% glycerol, and was frozen at −80° C. for later use.
# Ten nanoliters of test compounds dissolved in DMSO at various concentrations were dispensed into a 384-well ProxiPlate (PerkinElmer #6008289). Five microliters of a solution of recombinant HPK1 diluted in HPK1 kinase assay buffer (50 mM BES [N,N-Bis(2-hydroxyethyl)-2-aminoethanesulfonic acid], pH 7.0; 10 mM magnesium chloride; 0.01% Triton X-100; 1 mM dithiothreitol; 0.01% bovine serum albumin; 0.1 mM sodium orthovanadate) was added to the compound-containing plate and was incubated for 15 minutes at 25° C. Five microliters of a mixture of ATP (Sigma-Aldrich #A6559) and peptide substrate STK S1 (Cisbio #61ST1BLC) diluted in HPK1 kinase assay buffer was then added to start the reaction. Final concentrations were 0.15 nM for HPK1, 10 μM for ATP, and 1 μM for the STK S1 peptide substrate. The reaction mixture was incubated at 25° C. for 3 hours and was stopped with the addition of 10 μl of an EDTA (Ethylenediaminetetraacetic acid)-containing detection buffer (Cisbio #62SDBRDF) supplemented with Europium cryptate-labeled anti-phospho-serine/threonine antibodies (Cisbio #62ST1PEJ) and XL665-labeled streptavidin (Cisbio #610SAXLG). The mixture was incubated for 16 hours at room temperature and peptide phosphorylation was measured by time-resolved fluorescence energy transfer (665 nm/620 nm) on an Envision plate reader (PerkinElmer).
# Data in Table 1 were normalized based on positive (staurosporine) and negative (DMSO) controls. Least squares curve fittings were performed using a four-parameter variable slope nonlinear regression model. IC50 is defined as the concentration of compound required to inhibit 50% of maximum phosphorylation. IC50 values from multiple experiments were averaged by geometric mean and the standard deviation was calculated.
# Chain of human HPK1 (MAP4K1) (Q92918 17-274): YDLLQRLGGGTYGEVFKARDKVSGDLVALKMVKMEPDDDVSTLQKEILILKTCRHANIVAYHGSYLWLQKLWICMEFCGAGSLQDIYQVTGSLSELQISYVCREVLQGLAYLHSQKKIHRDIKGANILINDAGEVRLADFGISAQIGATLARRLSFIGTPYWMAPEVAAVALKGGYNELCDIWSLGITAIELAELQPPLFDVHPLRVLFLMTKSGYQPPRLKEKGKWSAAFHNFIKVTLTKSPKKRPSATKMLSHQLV
row,Structure (SMILES),IC50
1,CC(C)n1cnc2cc(-c3ccc4c(c3)N([C@H]3C[C@@H](N5CCCCC5)C3)C(=O)C43CCN(C(=O)C(C)(C)CO)CC3)nc(Nc3ccnc(F)c3F)c21 [Example 103],200 pM
2,CC(C)n1cnc2cc(-c3ccc4c(c3)N([C@H]3C[C@@H](N5CCC[C@@H](C)C5)C3)C(=O)C4(C)C)nc(Nc3ccncc3F)c21 [Example 191],900 pM
3,COC1(C(=O)N2CCC3(CC2)C(=O)N([C@H]2C[C@@H](N4CCCCC4)C2)c2cc(-c4cc5ncn(C(C)C)c5c(Nc5ccncc5F)n4)ccc23)CCC1 [Example 107],300 pM
4,CC(=O)N1CCC2(CC1)C(=O)N([C@H]1C[C@@H](N3C[C@H]4CC[C@H]4C3)C1)c1cc(-c3cc4ncn(C(C)C)c4c(Nc4ccncc4F)n3)ccc12 [Example 172],100 pM
5,CC(C)n1cnc2cc(-c3ccc4c(c3)N([C@H]3C[C@@H](N5CCC(C)(C)C5)C3)C(=O)C43CCN(C(=O)[C@@H](C)O)CC3)nc(Nc3ccncc3F)c21 [Example 120],500 pM
6,CC(C)n1cnc2cc(-c3ccc4c(c3)N([C@H]3C[C@@H](N5C[C@H]6CC[C@H]6C5)C3)C(=O)C43CCN(C(=O)[C@@H]4CCCO4)CC3)nc(Nc3ccncc3F)c21 [Example 111],80 pM
7,CC(C)n1cnc2cc(-c3ccc4c(c3)N([C@H]3C[C@@H](N5CC6CCC(C6)C5)C3)C(=O)C43CCN(C(=O)C4COC4)CC3)nc(Nc3ccncc3F)c21 [Example 124],70 pM

# Same assay, conditions: recombinant human HPK1 kinase domain 0.15 nM, 10 μM ATP, 1 μM STK S1 peptide; geometric mean of multiple experiments
row,Structure (SMILES),IC50
1,CC(=O)N1CCC2(CC1)C(=O)N([C@H]1C[C@@H](N3CCC[C@@H](C)C3)C1)c1cc(-c3cc4ncn(C(C)C)c4c(Nc4ccncc4F)n3)ccc12 [Example 32],600 pM
2,"CC(C)n1cnc2cc(-c3ccc4c(c3)N([C@H]3C[C@@H](N5CCC(C)(C)C5)C3)C(=O)C43CCN(C(=O)C4CCO4)CC3)nc(Nc3ccncc3F)c21 (single isomer, unassigned) [Example 78A, 1-((1s,3s)-3-(3,3-dimethylpyrrolidin-1-yl)cyclobutyl)-6-(4-((3-fluoropyridin-4-yl)amino)-3-isopropyl-3H-imidazo[4,5-c]pyridin-6-yl)-1′-(oxetane-2-carbonyl)spiro[indoline-3,4′-piperidin]-2-one]",300 pM
3,CC(C)n1cnc2cc(-c3ccc4c(c3)N([C@H]3C[C@@H](N5C[C@H]6CC[C@@H]5C6)C3)C(=O)C4(C)C)nc(Nc3ccncc3F)c21 [Example 66],700 pM
4,CC(C)n1cnc2cc(-c3ccc4c(c3)N([C@H]3C[C@@H](N5C[C@@H](C)[C@@H](C)C5)C3)C(=O)C43CCN(C(=O)C(C)(C)CO)CC3)nc(Nc3ccncc3F)c21 [Example 10],50 pM
5,CC(C)n1cnc2cc(-c3ccc4c(c3)N([C@H]3C[C@@H](N5CCC(C)(C)C5)C3)C(=O)C43CCN(C(=O)CC4COC4)CC3)nc(Nc3ccncc3F)c21 [Example 21],400 pM
6,CC(C)n1cnc2cc(-c3ccc4c(c3)N([C@H]3C[C@@H](N5CC6CCC(C6)C5)C3)C(=O)C4(C)C)nc(Nc3ccncc3F)c21 [Example 62],50 pM
7,"CC(C)n1cnc2cc(-c3ccc4c(c3)N([C@H]3C[C@@H](N5CCCCC5)C3)C(=O)C43CCN(C4COC4)CC3)nc(Nc3ccnc(F)c3F)c21 [Example 91, 6-(4-((2,3-difluoropyridin-4-yl)amino)-3-isopropyl-3H-imidazo[4,5-c]pyridin-6-yl)-1′-(oxetan-3-yl)-1-((1s,3s)-3-(piperidin-1-yl)cyclobutyl)spiro[indoline-3,4′-piperidin]-2-one]",200 pM
8,COC(=O)N1CCC2(CC1)C(=O)N([C@H]1C[C@@H](N3CCCCC3)C1)c1cc(-c3cc4ncn(C(C)C)c4c(Nc4ccncc4F)n3)ccc12 [Example 30],600 pM
9,CC(C)n1cnc2cc(-c3ccc4c(c3)N([C@H]3C[C@@H](N5CCC(C)(C)C5)C3)C(=O)C43CCN(C(=O)C4(C)CCO4)CC3)nc(Nc3ccncc3F)c21 (some centres unmarked) [Example 12],100 pM
10,CC(=O)N1CCC2(CC1)C(=O)N([C@H]1C[C@@H](N3CCCCC3)C1)c1cc(-c3cc4ncn(C(C)C)c4c(Nc4ccc(F)nc4F)n3)ccc12 [Example 70],100 pM
